# US20250082674A1, “METHODS OF TREATING COPPER METABOLISM-ASSOCIATED DISEASES OR DISORDERS” (priority 2021, published 2025)
# System: ^64CuCl2 (^64Cu) intestinal absorption and hepatic copper uptake
# Experiment: Example 2: Copper Absorption study, oral 64Cu PET-CT in healthy subjects
# Assay type: in vivo, human
# Details: healthy subjects; for mean SUV liver / hepatic uptake of labeled copper, comparison between treatments: 1 hour and 15 hours after oral 64Cu; for reduction of mean hepatic copper uptake: 1 hr scan post treatment, oral 64Cu, 7 days treatment
# Protocol: Blood was collected at several time points to assess plasma copper kinetics. The study was carried out as a randomized, placebo-controlled intervention study. […] The study assessed the previously listed organs and the effect of anti-copper treatment by comparing the mean standard uptake value (SUV) in the organs of interest. […] The dynamic baseline scans and the subsequent static scans were compared across all treatments.
SMILES,"mean SUV liver / hepatic uptake of labeled copper, comparison between treatments",reduction of mean hepatic copper uptake
"CC(C)(S)[C@@H](N)C(=O)O [penicillamine, (2S)-2-amino-3-methyl-3-sulfanylbutanoic acid, reference compound]",not different from placebo,approximately 25%
"NCCNCCNCCN [trientine, N′-[2-(2-aminoethylamino)ethyl]ethane-1,2-diamine, reference compound]",significantly lower than with penicillamine,~50%
